Tested on: HIV
Test: MT4 assay (anti-HIV activity)
Type: cell-based
Conditions: Human immunodeficiency virus 1, 96 h, antiviral HIV activity in HTLV-1 transformed cell line MT-4; luciferase read 96 hours later; 10 point dose response
Outline: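 MT-4 cells infected with HIV, with inhibition readout by CellTiter-Glo luminescence at 96 h relative to no-compound control. Cytotoxicity measured in parallel under the same conditions. IC50 from a 10-point, 3-4-fold dilution series spanning >1000-fold, fitted with a four-parameter logistic equation.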

| Compound | IC50 [nM] |
| --- | --- |
| Cc1ccc(-c2c(C)c3c(c(C)c2C(OC(C)(C)C)C(=O)O)CCN(C(=O)N2CCCCC2)C3)cc1 (centres unmarked) [Example 23, 2-(tert-Butoxy)-2-(5,8-dimethyl-2-(piperidine-1-carbonyl)-7-(p-tolyl)-1,2,3,4-tetrahydroisoquinolin-6-yl)acetic Acid] | 108 |
| Cc1c(-c2c(C)c3c(c(C)c2[C@H](OC(C)(C)C)C(=O)O)CC(=O)N(CC(C)C)C3)cc(F)c2c1CCCO2 (atropisomer, axis not shown) [Example 110] | 3 |
| COc1ccc(C(=O)N2CCc3c(C)c([C@H](OC(C)(C)C)C(=O)O)c(-c4cc(F)c5c(c4C)CCCO5)c(C)c3C2)cc1F [Example 92, (S)-2-(tert-Butoxy)-2-((R)-2-(3-fluoro-4-methoxybenzoyl)-7-(8-fluoro-5-methylchroman-6-yl)-5,8-dimethyl-1,2,3,4-tetrahydroisoquinolin-6-yl)acetic Acid] | 153 |
| Cc1ccc(-c2c(C)c3c(c(C)c2[C@H](OC(C)(C)C)C(=O)O)CN(S(=O)(=O)C2CCCCC2)CC3)cc1 [Example 19, (S)-2-(tert-Butoxy)-2-(2-(cyclohexylsulfonyl)-5,8-dimethyl-6-(p-tolyl)-1,2,3,4-tetrahydroisoquinolin-7-yl)acetic Acid] | 1450 |
| Cc1ccc(-c2c(C)c3c(c(C)c2[C@H](OC(C)(C)C)C(=O)O)CCN(C2CC4CCC2C4)C3)cc1 (stereo partly drawn) [Example 49, (2S)-2-(2-(bicyclo[2.2.1]heptan-2-yl)-5,8-dimethyl-7-(p-tolyl)-1,2,3,4-tetrahydroisoquinolin-6-yl)-2-(tert-butoxy)acetic Acid] | 11 |
| Cc1ccc(-c2c(C)c3c(c(C)c2[C@H](OC(C)(C)C)C(=O)O)CCN(C2CCC(F)(F)CC2)C3)cc1 [Example 56, (S)-2-(tert-butoxy)-2-(2-(4,4-difluorocyclohexyl)-5,8-dimethyl-7-(p-tolyl)-1,2,3,4-tetrahydroisoquinolin-6-yl)acetic Acid] | 14 |
| Cc1ccc(-c2c(C)c3c(c(C)c2[C@H](OC(C)(C)C)C(=O)O)CCN(C2CCCCC2)C3)cc1 [Example 29, (S)-2-(tert-Butoxy)-2-(2-cyclohexyl-5,8-dimethyl-7-(p-tolyl)-1,2,3,4-tetrahydroisoquinolin-6-yl)acetic Acid] | 13 |
| Cc1ccc(-c2c(C)c3c(c(C)c2[C@H](OC(C)(C)C)C(=O)O)CCN(C(=O)CN2CCCCC2)C3)cc1 [Example 53, (S)-2-(tert-butoxy)-2-(5,8-dimethyl-2-(2-(piperidin-1-yl)acetyl)-7-(p-tolyl)-1,2,3,4-tetrahydroisoquinolin-6-yl)acetic Acid] | 807 |
| Cc1ccc(-c2c(C)c3c(c(C)c2[C@H](OC(C)(C)C)C(=O)O)CCN(C(=O)C(C)(C)C)C3)cc1 [Example 24, (S)-2-(tert-Butoxy)-2-(5,8-dimethyl-2-pivaloyl-7-(p-tolyl)-1,2,3,4-tetrahydroisoquinolin-6-yl)acetic Acid] | 87 |
| COc1c(F)cccc1N1Cc2c(C)c(-c3cc(F)c4c(c3C)CCCO4)c([C@H](OC(C)(C)C)C(=O)O)c(C)c2CC1=O (atropisomer, axis not shown) [Example 107, (S)-2-(tert-butoxy)-2-((R)-2-(3-fluoro-2-methoxyphenyl)-7-(8-fluoro-5-methylchroman-6-yl)-5,8-dimethyl-3-oxo-1,2,3,4-tetrahydroisoquinolin-6-yl)acetic Acid] | 2 |
| Cc1c(-c2c(C)c3c(c(C)c2[C@H](OC(C)(C)C)C(=O)O)CCN(C(=O)C2CCCCC2)C3)cc(F)c2c1CCCO2 [Example 79, (S)-2-(tert-Butoxy)-2-((R)-2-(cyclohexanecarbonyl)-7-(8-fluoro-5-methylchroman-6-yl)-5,8-dimethyl-1,2,3,4-tetrahydroisoquinolin-6-yl)acetic Acid] | 35 |
| Cc1ccc(-c2c(C)c3c(c(C)c2[C@H](OC(C)(C)C)C(=O)O)CCN(C2CCOCC2)C3)cc1 [Example 28, (S)-2-(tert-Butoxy)-2-(5,8-dimethyl-2-(tetrahydro-2H-pyran-4-yl)-7-(p-tolyl)-1,2,3,4-tetrahydroisoquinolin-6-yl)acetic Acid] | 378 |
| Cc1ccc(-c2c(C)c3c(c(C)c2[C@H](OC(C)(C)C)C(=O)O)CCN(S(=O)(=O)CC(C)(C)C)C3)cc1 [Example 62, (S)-2-(tert-butoxy)-2-(5,8-dimethyl-2-(neopentylsulfonyl)-7-(p-tolyl)-1,2,3,4-tetrahydroisoquinolin-6-yl)acetic Acid] | 11 |
| Cc1ccc(-c2c(C)c3c(c(C)c2[C@H](OC(C)(C)C)C(=O)O)CCN(C2CCCC(C)(C)C2)C3)cc1 (stereo partly drawn) [Example 52, (2S)-2-(tert-butoxy)-2-(2-(3,3-dimethylcyclohexyl)-5,8-dimethyl-7-(p-tolyl)-1,2,3,4-tetrahydroisoquinolin-6-yl)acetic Acid] | 10 |
| Cc1ccc(-c2c(C)c3c(c(C)c2C(OC(C)(C)C)C(=O)O)CC(=O)N(Cc2ccccc2)C3)cc1 (centres unmarked) [Example 98, 2-(2-Benzyl-5,8-dimethyl-3-oxo-7-(p-tolyl)-1,2,3,4-tetrahydroisoquinolin-6-yl)-2-(tert-butoxy)acetic Acid] | 14 |
| Cc1ccc(-c2c(C)c3c(c(C)c2[C@H](OC(C)(C)C)C(=O)O)CCN(C2CC[C@@H](C)C2)C3)cc1 (stereo partly drawn) [Example 73, (2S)-2-(tert-butoxy)-2-(5,8-dimethyl-2-((3R)-3-methylcyclopentyl)-7-(p-tolyl)-1,2,3,4-tetrahydroisoquinolin-6-yl)acetic Acid] | 42 |
| Cc1ccc(-c2c(C)c3c(c(C)c2[C@H](OC(C)(C)C)C(=O)O)CCN(C(=O)CC(C)(C)C)C3)cc1 [Example 25, (S)-2-(tert-Butoxy)-2-(2-(3,3-dimethylbutanoyl)-5,8-dimethyl-7-(p-tolyl)-1,2,3,4-tetrahydroisoquinolin-6-yl)acetic Acid] | 95 |
| Cc1c(-c2c(C)c3c(c(C)c2[C@H](OC(C)(C)C)C(=O)O)CCN(CC2CCCCC2)C3)cc(F)c2c1CCCO2 [Example 85, (S)-2-(tert-Butoxy)-2-((R)-2-(cyclohexylmethyl)-7-(8-fluoro-5-methylchroman-6-yl)-5,8-dimethyl-1,2,3,4-tetrahydroisoquinolin-6-yl)acetic Acid] | 14 |
| Cc1ccc(-c2c(C)c3c(c(C)c2[C@H](OC(C)(C)C)C(=O)O)CCN(S(=O)(=O)N2CCCCC2)C3)cc1 [Example 38, (S)-2-(tert-butoxy)-2-(5,8-dimethyl-2-(piperidin-1-ylsulfonyl)-7-(p-tolyl)-1,2,3,4-tetrahydroisoquinolin-6-yl)acetic Acid] | 23 |
| Cc1ccc(-c2c(C)c3c(c(C)c2[C@H](OC(C)(C)C)C(=O)O)CCN(C2CCC[C@@H](C)C2)C3)cc1 (stereo partly drawn) [Example 72, (2S)-2-(tert-butoxy)-2-(5,8-dimethyl-2-((3R)-3-methylcyclohexyl)-7-(p-tolyl)-1,2,3,4-tetrahydroisoquinolin-6-yl)acetic Acid] | 23 |

Reference: patent US20180334436A1 (VIIV HEALTHCARE UK LIMITED, priority 2015, published 2018)
